According to ChEMBL document CHEMBL1158622, “Discovery of a series of indan carboxylic acid glycogen phosphorylase inhibitors” (Bioorg Med Chem Lett, 2010):
Several values for one entry are separate records, joined by “and”; a condition that tells them apart may be missing. Equal values may be shown once.

What was measured:
[1] = molecular target: T1, Glycogen phosphorylase, liver form (Homo sapiens, UniProt P06737); assay: Inhibition of human recombinant liver glycogen phosphorylase by multienzyme-coupled reaction
T1 sequence (P06737 whole entry): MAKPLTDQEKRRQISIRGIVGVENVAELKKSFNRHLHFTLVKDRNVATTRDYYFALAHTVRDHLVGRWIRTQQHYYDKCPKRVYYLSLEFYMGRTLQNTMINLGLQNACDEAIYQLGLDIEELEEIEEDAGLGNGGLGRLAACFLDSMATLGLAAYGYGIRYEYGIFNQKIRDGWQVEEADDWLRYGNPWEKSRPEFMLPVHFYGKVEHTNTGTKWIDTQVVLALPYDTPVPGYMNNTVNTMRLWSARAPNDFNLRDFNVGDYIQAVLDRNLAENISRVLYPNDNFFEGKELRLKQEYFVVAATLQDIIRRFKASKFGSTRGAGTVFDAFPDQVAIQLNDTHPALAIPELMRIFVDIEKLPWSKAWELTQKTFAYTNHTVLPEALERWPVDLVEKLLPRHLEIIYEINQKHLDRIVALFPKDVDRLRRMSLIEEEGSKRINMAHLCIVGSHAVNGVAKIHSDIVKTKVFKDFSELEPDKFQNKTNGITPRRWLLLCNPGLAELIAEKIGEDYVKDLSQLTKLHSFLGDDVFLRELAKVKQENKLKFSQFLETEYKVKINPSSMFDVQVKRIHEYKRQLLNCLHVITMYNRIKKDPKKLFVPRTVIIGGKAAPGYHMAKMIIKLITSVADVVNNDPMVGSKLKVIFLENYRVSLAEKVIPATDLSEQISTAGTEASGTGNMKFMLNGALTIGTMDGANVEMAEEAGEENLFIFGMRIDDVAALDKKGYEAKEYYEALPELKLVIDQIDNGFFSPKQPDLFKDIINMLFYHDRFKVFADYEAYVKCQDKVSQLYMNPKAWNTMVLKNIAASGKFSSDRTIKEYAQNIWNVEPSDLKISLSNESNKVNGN

[2] = (§1) Oral bioavailability in rat at 5 mg/kg oral & 2 mg/kg iv dose; assay type: ADME, organism-based; details: in vivo
[3] = Volume of distribution in Wistar rat at […], iv and 11 to 12.2 umol/kg, po; assay type: ADME, organism-based; details: in vivo
Rattus norvegicus [4] = assay: Antihyperglycemic activity in Zucker fa/fa rat assessed as reduction in glucose level at 17 umol/kg dosed 45 mins prior to glucagon challenge measured after 90 mins; assay type: functional; parameters: scale not given: the % may be the effect or the level left
[5] = Clearance in Wistar rat at […], iv and 11 to 12.2 umol/kg, po; assay type: ADME, organism-based; details: in vivo
CYP2D6 = CYP2D6 (Homo sapiens, UniProt P10635); assay: Inhibition of CYP2D6 at 10 uM; assay type: ADME
[6] = Half life in male Wistar rats at 4.3 - 4.9 umol/kg iv dose (11 - 12.2 umol/kg oral); assay type: ADME, organism-based; details: rat, in vivo
CYP2C19 = CYP2C19 (Homo sapiens, UniProt P33261); assay: Inhibition of CYP2C19 at 10 uM; assay type: ADME
CYP1A2 = molecular target: T2, CYP1A2 (Homo sapiens, UniProt P05177); assay: Inhibition of CYP1A2 at 10 uM; assay type: ADME
T2 sequence (P05177 whole entry): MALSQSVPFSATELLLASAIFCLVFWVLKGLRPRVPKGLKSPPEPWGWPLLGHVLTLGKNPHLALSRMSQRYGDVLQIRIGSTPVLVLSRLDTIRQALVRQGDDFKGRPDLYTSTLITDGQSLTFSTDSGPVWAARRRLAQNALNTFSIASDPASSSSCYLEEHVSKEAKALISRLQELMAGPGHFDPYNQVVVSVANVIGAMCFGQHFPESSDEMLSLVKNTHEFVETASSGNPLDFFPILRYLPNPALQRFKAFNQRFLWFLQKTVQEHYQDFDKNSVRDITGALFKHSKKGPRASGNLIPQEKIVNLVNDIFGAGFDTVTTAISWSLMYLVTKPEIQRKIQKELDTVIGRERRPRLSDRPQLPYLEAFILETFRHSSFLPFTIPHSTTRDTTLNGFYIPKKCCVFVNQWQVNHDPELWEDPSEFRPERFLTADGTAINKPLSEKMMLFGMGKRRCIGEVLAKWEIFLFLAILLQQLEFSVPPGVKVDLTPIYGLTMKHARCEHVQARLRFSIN

[7] = Oral bioavailability in male Wistar rats at 11 - 12.2 umol/kg oral & 4.3 - 4.9 umol/kg iv dose; assay type: ADME, organism-based; details: rat, in vivo
CYP2C9 = CYP2C9 (Homo sapiens, UniProt P11712); assay: Inhibition of CYP2C9 at 10 uM; assay type: ADME
Rattus norvegicus [8] = assay: as §1; assay type: ADME, organism-based; details: in vivo
CYP3A4 = CYP3A4 (Homo sapiens, UniProt P08684); assay: Inhibition of […] at 10 uM; assay type: ADME
Rattus norvegicus [9] = organism: Rattus norvegicus; assay: Free plasma concentration in rat; assay type: ADME, organism-based; details: in vivo
[10] = molecular target: Voltage-gated inwardly rectifying potassium channel KCNH2 (Homo sapiens, UniProt Q12809)
Chain of Voltage-gated inwardly rectifying potassium channel KCNH2 (Q12809 whole entry): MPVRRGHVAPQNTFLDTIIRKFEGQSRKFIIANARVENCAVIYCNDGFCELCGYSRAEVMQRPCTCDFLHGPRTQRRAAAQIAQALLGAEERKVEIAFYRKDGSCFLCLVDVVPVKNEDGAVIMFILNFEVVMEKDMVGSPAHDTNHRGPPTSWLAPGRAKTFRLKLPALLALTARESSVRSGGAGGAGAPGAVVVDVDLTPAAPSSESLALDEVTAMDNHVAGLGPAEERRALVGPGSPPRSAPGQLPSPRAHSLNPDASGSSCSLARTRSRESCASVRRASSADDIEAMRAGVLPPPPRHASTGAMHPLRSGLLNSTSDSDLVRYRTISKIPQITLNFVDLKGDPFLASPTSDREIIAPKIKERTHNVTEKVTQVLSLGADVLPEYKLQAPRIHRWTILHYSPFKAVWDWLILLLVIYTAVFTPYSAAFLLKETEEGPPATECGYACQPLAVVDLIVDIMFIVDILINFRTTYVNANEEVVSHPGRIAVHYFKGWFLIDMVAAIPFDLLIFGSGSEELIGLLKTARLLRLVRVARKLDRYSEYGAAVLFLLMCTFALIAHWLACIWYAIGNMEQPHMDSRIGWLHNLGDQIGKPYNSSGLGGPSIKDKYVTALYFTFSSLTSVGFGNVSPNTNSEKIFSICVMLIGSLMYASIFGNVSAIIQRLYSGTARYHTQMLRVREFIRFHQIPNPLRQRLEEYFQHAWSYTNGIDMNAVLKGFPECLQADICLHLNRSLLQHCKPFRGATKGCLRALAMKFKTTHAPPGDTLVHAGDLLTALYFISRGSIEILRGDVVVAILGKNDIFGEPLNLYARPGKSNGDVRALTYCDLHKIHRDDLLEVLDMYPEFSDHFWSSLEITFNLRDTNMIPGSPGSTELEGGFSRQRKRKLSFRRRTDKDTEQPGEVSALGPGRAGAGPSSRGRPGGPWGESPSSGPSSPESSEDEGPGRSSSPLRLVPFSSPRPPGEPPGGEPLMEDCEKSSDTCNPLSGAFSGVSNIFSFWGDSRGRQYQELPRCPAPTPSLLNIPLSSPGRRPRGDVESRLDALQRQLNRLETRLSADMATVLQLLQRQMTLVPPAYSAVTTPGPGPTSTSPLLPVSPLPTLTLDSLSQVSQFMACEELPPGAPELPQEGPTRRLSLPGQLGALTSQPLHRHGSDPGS

Chain of CYP2D6 (P10635 whole entry): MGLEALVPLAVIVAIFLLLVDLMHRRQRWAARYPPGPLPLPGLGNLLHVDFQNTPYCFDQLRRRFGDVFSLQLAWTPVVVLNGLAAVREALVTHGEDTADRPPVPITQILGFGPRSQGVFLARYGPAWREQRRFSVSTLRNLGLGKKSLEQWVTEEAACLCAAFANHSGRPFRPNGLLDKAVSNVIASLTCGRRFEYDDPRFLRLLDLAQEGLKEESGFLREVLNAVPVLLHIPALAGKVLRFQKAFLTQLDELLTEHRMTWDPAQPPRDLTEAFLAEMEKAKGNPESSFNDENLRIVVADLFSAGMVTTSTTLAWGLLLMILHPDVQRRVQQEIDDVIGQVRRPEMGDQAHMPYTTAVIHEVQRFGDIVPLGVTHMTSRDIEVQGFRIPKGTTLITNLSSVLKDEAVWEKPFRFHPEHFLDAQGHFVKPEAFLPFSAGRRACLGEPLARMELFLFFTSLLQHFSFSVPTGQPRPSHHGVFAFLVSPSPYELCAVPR
Chain of CYP2C9 (P11712 whole entry): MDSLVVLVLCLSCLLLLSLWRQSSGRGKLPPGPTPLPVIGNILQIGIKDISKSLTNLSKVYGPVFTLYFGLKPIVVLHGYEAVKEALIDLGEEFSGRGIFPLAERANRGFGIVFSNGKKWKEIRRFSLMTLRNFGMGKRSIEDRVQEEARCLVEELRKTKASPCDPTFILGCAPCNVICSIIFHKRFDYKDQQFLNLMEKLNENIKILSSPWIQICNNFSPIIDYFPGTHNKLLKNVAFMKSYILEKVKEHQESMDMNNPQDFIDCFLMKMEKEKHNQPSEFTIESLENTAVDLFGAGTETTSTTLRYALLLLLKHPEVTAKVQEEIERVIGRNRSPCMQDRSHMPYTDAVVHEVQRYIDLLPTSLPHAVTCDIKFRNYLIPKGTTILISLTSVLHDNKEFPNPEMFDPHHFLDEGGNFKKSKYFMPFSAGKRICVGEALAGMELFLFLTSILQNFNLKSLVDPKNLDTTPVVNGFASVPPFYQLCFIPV
Chain of CYP2C19 (P33261 whole entry): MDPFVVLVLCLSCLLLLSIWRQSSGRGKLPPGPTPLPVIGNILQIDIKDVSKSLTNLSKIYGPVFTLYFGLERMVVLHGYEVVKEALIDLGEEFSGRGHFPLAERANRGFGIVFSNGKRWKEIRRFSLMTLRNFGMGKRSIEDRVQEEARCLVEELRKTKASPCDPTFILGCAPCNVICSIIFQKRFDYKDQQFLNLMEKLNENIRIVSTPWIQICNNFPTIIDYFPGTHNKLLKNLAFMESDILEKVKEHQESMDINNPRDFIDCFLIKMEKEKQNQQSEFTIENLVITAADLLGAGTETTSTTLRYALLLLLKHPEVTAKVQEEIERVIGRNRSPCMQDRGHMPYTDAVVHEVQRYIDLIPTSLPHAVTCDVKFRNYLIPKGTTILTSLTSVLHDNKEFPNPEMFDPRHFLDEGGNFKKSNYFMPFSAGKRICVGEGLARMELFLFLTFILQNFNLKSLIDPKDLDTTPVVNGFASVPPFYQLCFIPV
Chain of CYP3A4 (P08684 whole entry): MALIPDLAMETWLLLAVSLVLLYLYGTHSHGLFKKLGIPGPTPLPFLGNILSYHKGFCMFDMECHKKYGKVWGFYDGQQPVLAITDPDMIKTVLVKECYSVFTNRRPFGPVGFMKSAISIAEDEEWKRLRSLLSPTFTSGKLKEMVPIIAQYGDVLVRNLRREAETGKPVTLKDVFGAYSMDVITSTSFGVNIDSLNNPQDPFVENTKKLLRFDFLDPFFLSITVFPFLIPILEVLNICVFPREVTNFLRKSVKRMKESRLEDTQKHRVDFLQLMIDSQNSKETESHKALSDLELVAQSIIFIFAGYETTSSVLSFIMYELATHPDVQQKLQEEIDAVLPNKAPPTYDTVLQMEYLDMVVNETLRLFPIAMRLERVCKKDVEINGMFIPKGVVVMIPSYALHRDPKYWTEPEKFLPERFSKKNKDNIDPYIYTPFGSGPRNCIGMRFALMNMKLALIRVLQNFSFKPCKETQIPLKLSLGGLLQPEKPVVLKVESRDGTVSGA

| IC50 [1] [µM] | bioavailability [2] [%] | SMILES | other results |
| --- | --- | --- | --- |
| 0.03 | 5 | O=C(O)CO[C@@H]1c2ccccc2C[C@H]1NC(=O)c1cc2sc(Cl)c(Cl)c2[nH]1 |  |
|  |  | COCC[C@H](C(=O)O)[C@@H]1c2ccccc2C[C@H]1NC(=O)c1cc2sc(Cl)c(Cl)c2[nH]1 [(S)-2-((1R,2R)-2-(2,3-DICHLORO-4H-THIENO[3,2-B]PYRROLE-5-CARBOXAMIDO)-2,3-DIHYDRO-1H-INDEN-1-YL)-4-METHOXYBUTANOIC ACID (DIASTEREOMERIC MIX)] | Vd [3]: 0.2 L/kg; Activity (Rattus norvegicus [4]): 50%; clearance [5]: 0.4 mL/min/kg; inhibition at 10 µM (CYP2D6): < 50%; half-life [6]: 7 h; inhibition at 10 µM (CYP2C19): < 50%; inhibition at 10 µM (CYP1A2): < 50%; bioavailability [7]: 118%; inhibition at 10 µM (CYP2C9): < 50%; F (Rattus norvegicus [8]): 150% and 65%; inhibition at 10 µM (CYP3A4): < 50% |
| 0.042 | 2 | O=C(O)CCCS(=O)(=O)C[C@@H]1c2ccccc2C[C@H]1NC(=O)c1cc2sc(Cl)c(Cl)c2[nH]1 | fraction unbound (Rattus norvegicus [9]): 0.3% |
| 0.04 | 23 | O=C(O)CSC[C@@H]1c2ccccc2C[C@H]1NC(=O)c1cc2sc(Cl)c(Cl)c2[nH]1 |  |
|  | 88 | O=C(O)C[C@@H]1c2ccccc2C[C@H]1NC(=O)c1cc2cc(F)ccc2[nH]1 |  |
| 0.056 | 80 | O=C(O)CC[C@@H]1c2ccccc2C[C@H]1NC(=O)c1cc2sc(Cl)c(Cl)c2[nH]1 |  |
| 0.054 | 118 | O=C(O)CCC[C@@H]1c2ccccc2C[C@H]1NC(=O)c1cc2sc(Cl)c(Cl)c2[nH]1 |  |
| 0.018 | 65 | O=C(O)C[C@@H]1c2ccccc2C[C@H]1NC(=O)c1cc2sc(Cl)c(Cl)c2[nH]1 | Vd [3]: 0.2 L/kg; clearance [5]: 0.23 mL/min/kg; IC50 [10]: > 30 µM; inhibition at 10 µM (CYP2D6): < 50%; half-life [6]: 8 h; inhibition at 10 µM (CYP2C19): < 50%; inhibition at 10 µM (CYP1A2): < 50%; bioavailability [7]: 65%; inhibition at 10 µM (CYP2C9): < 50%; inhibition at 10 µM (CYP3A4): < 50% |
| 0.04 | 41 | O=C(O)C[C@@H]1c2ccccc2C[C@H]1NC(=O)c1cc2cc(Cl)sc2[nH]1 |  |
| 0.076 | 65 | O=C(O)C[C@@H]1c2ccccc2C[C@H]1NC(=O)c1cc2cc(Cl)c(F)cc2[nH]1 |  |
| 0.056 | 2 | O=C(O)CC(=O)N[C@@H]1c2ccccc2C[C@H]1NC(=O)c1cc2sc(Cl)c(Cl)c2[nH]1 |  |
| 1.2 |  | O=C(O)C[C@H]1c2ccccc2C[C@@H]1NC(=O)c1cc2cc(Cl)sc2[nH]1 |  |
| 0.059 | 55 | O=C(O)CCO[C@@H]1c2ccccc2C[C@H]1NC(=O)c1cc2sc(Cl)c(Cl)c2[nH]1 |  |
| 0.26 | 11 | O=C(O)C[C@@H]1c2ccccc2C[C@H]1NC(=O)c1cc2cc(Cl)ncc2[nH]1 | fraction unbound (Rattus norvegicus [9]): 0.01% |
| 1.5 |  | O=C(O)C[C@H]1c2ccccc2C[C@@H]1NC(=O)c1cc2sc(Cl)c(Cl)c2[nH]1 |  |
| 0.052 | 41 | O=C(O)C[C@@H]1c2ccccc2C[C@H]1NC(=O)c1cc2cc(Cl)cc(F)c2[nH]1 |  |
| 0.057 | 77 | O=C(O)C[C@@H]1c2ccccc2C[C@H]1NC(=O)c1cc2cc(Cl)ccc2[nH]1 |  |
